Measured values: ChEMBL document CHEMBL5252577, “Amphiphilic Polyamine α-Synuclein Aggregation Inhibitors from the Sponge Aaptos lobata” (J Nat Prod, 2023)
Values after ≈ are worked out from the molar mass of the structure shown.

Columns and labels:
PC-3 = assay: Cytotoxicity against human PC-3 cells assessed as reduction in cell viability measured for 48 hrs by resazurin dye based assay; assay type: functional; conditions: PC-3, 48 h
Pseudomonas aeruginosa = assay: Antibacterial activity against Pseudomonas aeruginosa ATCC 27853 assessed as bacterial growth inhibition resazurin dye based microplate analysis; assay type: functional
Staphylococcus aureus [1] = assay: Antibacterial activity against methicillin-sensitive Staphylococcus aureus ATCC 25923 assessed as bacterial growth inhibition resazurin dye based microplate analysis; assay type: functional
[2] = Cytotoxicity against human WPMY-1 cells assessed as reduction in cell viability measured for 48 hrs by resazurin dye based assay; assay type: toxicity
Staphylococcus aureus [3] = assay: Antibacterial activity against methicillin-resistant Staphylococcus aureus ATCC 43300 assessed as bacterial growth inhibition resazurin dye based microplate analysis; assay type: functional

Compound	IC50 (PC-3) [µM]	MIC90 (Pseudomonas aeruginosa) [µg/mL]	MIC90 (Staphylococcus aureus [1]) [µg/mL]	IC50 at 48 h [2] [µM]	MIC90 (Staphylococcus aureus [3]) [µg/mL]
CCCCCCCCCC(=O)N(C)CCCNCCCNCCCNCCCCNCCCNCCCNCCCN(C)C(=O)CCCCCCCC(C)C	4.1	64 (≈ 81.9 µM)	32 (≈ 41 µM)	4.1	32 (≈ 41 µM)
CCCCCCCCCC(=O)N(C)CCCNCCCNCCCNCCCCNCCCNCCCNCCCN(C)C(=O)CCCCCCC(C)C	3.4	32 (≈ 41.7 µM)	8 (≈ 10.4 µM)	4.3	16 (≈ 20.9 µM)
COc1cccc2c1C(=O)c1c(O)c3c(c(O)c1C2=O)C[C@@](O)(C(=O)CO)C[C@@H]3O[C@H]1C[C@H](N)[C@H](O)[C@H](C)O1 [DOXORUBICIN]	0.6	–	–	0.7	–
CC[C@H]1OC(=O)[C@H](C)[C@@H](O[C@H]2C[C@@](C)(OC)[C@@H](O)[C@H](C)O2)[C@H](C)[C@@H](O[C@@H]2O[C@H](C)C[C@H](N(C)C)[C@H]2O)[C@](C)(O)C[C@@H](C)C(=O)[C@H](C)[C@@H](O)[C@]1(C)O [ERYTHROMYCIN]	–	–	2 (≈ 2.73 µM)	–	–
CC(=O)O[C@H]1C[C@@]2(C)[C@@H](C[C@@H](O)[C@H]3[C@@]4(C)CC[C@@H](O)[C@@H](C)[C@@H]4CC[C@@]32C)/C1=C(\CCC=C(C)C)C(=O)O [FUSIDIC ACID]	–	–	–	–	0.25 (≈ 0.484 µM)
NC[C@H]1O[C@H](O[C@H]2[C@H](O)[C@@H](O[C@H]3O[C@H](CO)[C@@H](O)[C@H](N)[C@H]3O)[C@H](N)C[C@@H]2N)[C@H](N)C[C@@H]1O [TOBRAMYCIN]	–	1 (≈ 2.14 µM)	–	–	–
